# Data published in patent publication US7834213B2, “Colorant compound and method of manufacturing the same as well as blue resist composition for use in color filter containing the same” (Canon Kabushiki Kaisha, priority 2005, dated 2010).
# Tests used:
# [1] = Evaluation of solubility of colorant compounds to cyclohexanone; assay type: physicochemical; conditions: rank A/B/C
# [2] = Evaluation of spectral characteristics (UV visible absorption spectrum in cyclohexanone); assay type: physicochemical; conditions: for absorbance ratio: absorbance at largest absorption wavelength (500 to 650 nm) / absorbance at smallest absorption wavelength (400 to 500 nm), in cyclohexanone, room temperature; for λmax [nm]: absorption peak wavelength, dissolved in cyclohexanone, absorbance regulated to 2.0, room temperature
# Method: The colorant compounds represented by the formula (10) was dissolved in cyclohexanone and regulated so as to show an absorbance of 2.0. […] The absorption peak wavelength (λmax [nm]) was determined from the spectrum obtained by the observation. The spectral characteristics of the colorant compound were evaluated by the absorbance ratio of the largest absorption wavelength of the spectrum in the range of 500 to 650 nm to the smallest absorption wavelength of the spectrum in the range of 400 to 500 nm (the absorbance at the largest absorption wavelength/the absorbance at the smallest absorption wavelength).
# While the lightness can be evaluated by means of the Y value of the XYZ standard […] system established by CIE (Commission Internationale de l'Eclairage), the lightness was evaluated by means of the absorbance ratio in this example because the Y value can vary remarkably when the hue is shifted slightly.
Structure (SMILES),solubility [1],absorbance ratio [2],λmax [nm] [2]
CCCCC(CC)CN(CC(CC)CCCC)S(=O)(=O)c1cccc(CN(CC)c2ccc(C(=C3C=CC(=[N+](CC)Cc4cccc(S(=O)(=O)N(CC(CC)CCCC)CC(CC)CCCC)c4)C=C3)c3ccccc3S(=O)(=O)[O-])cc2)c1 (centres unmarked) [compound (10)],A (The solubility to cyclohexanone is not lower than 10%.),433,619 nm
"CCCCNc1ccc(NCCCC)c2c1C(=O)c1ccccc1C2=O [compound (28), C. I. Solvent Blue 35, reference compound]",–,77,620 nm
